Data: patent US20090012009A1, “Composition and Method for Treating Inflammatory Disease” (priority 2007, published 2009)

Tests used:
[1] = biological target: T1, hFR-β (Homo sapiens, UniProt P14207); assay: Relative binding affinity of folate-hapten conjugates, displacement of 3H-folic acid from CHO-β cells; conditions: 10 nM 3H-folic acid
T1 construct: expressed in transfected cells; host or cells: CHO-β cells (CHO cells expressing hFR-β)
Method: The relative binding affinities of folate-hapten conjugates to hFR-β were examined using a previously described method (Reddy et al., 2004). CHO-β cells expressing hFR-β were seeded on 48-well plates at 70% confluence and cultured at 37° C. in folate-deficient RPMI1640 medium (Invitrogen, CA, USA) supplemented with 1× penicillin/streptomycin (Gibco, Calif., USA) and 10% fetal bovine serum (FBS) (Atlanta Biologicals, GA, USA) in a 5% CO2 humidified incubator. Twenty-four hours later, cells were washed twice with PBS (pH 7.4), after which a 10 nM solution of ^3H-folic acid (GE Healthcare, NJ, USA) was added with increasing concentrations (10^−10M to 10^−5M) of either folate-FITC, folate-DNP1, folate-DNP2, folate-DNP3, or folate-TNP in cell culture medium. Cells were incubated at 37° C. for 1 h and washed 3× with 0.5 ml PBS. 0.5 ml of 1.0% sodium dodecyl sulfate (SDS) in PBS was added to each well, and after 5 min, cell lysates were collected and transferred to vials containing scintillation cocktail and counted for radioactivity. Relative binding affinity was defined as the molar ratio required for displacement of 50% of bound ^3H-folic acid from the cell surface.

[2] = tested on: arthritic rats; assay: Arthritis scores, adjuvant-induced arthritis in rats; format: in vivo, rat; conditions: i.p. 5×/week; scale 0-4, scored 2×/week
Method: (§1) Experimental adjuvant-induced arthritis was induced according to a previously described method (Paulos et al., 2006; van Eden et al., 1996). Briefly, adjuvant was prepared by adding finely ground heat-killed Mycobacterium butyricum(Difco Laboratories, MI, USA) in mineral oil (Sigma-Aldrich, MO, USA) at a final concentration of 1 mg/ml. The adjuvant was kept under constant stirring to ensure homogenous distribution of the mycobacterial particles. Immunized rats were anesthetized with ketamine and xylazine (100 mg/kg and 13 mg/kg, respectively) and injected in the right hind paw with 100 μl of the mycobacterial suspension. Paw inflammation was monitored daily until the first symptoms of RA appeared on the left, non-injected hind paw. […]
(§2) To compare the efficacies of the various folate-hapten conjugates in treating RA, arthritic rats were injected i.p. 5×/week with either: 1) vehicle alone (PBS), 2) 100 nmol/kg of folate-FITC, 3) 30 nmol/kg folate-DNP1, 4) 200 nmol/kg folate-DNP1, 5) 30 nmol/kg folate-DNP2, 6) 200 nmol/kg folate-DNP2, 7) 30 nmol/kg folate-DNP3, 8) 200 nmol/kg folate-DNP3, 9) 30 nmol/kg folate-TNP, or 10) 200 nmol/kg folate-TNP. Paw volumes, arthritis scores, spleen enlargement, bone degradation, and the biodistribution of FR+macrophages were then quantitated as a function of time during therapy, as described below. […]

[3] = tested on: arthritic rats; conditions: previous dosing studies; cited from earlier work
[4] = tested on: arthritic rats; assay: Paw volumes of non-injected hind paws, adjuvant-induced arthritis in rats; format: in vivo, rat; conditions: i.p. 5×/week, 30 or 200 nmol/kg (folate-FITC 100 nmol/kg)
Method: as §1, §2

[5] = tested on: FR-β+ activated macrophages; assay: 99mTc-EC20 biodistribution in spleens and livers of arthritic rats; format: in vivo, rat; conditions: 4 h after i.p. 99mTc-EC20 (67 nmol/kg); versus PBS-treated group
Method: To compare the efficacies of the various folate-hapten conjugates in treating RA, arthritic rats were injected i.p. 5×/week with either: 1) vehicle alone (PBS), 2) 100 nmol/kg of folate-FITC, 3) 30 nmol/kg folate-DNP1, 4) 200 nmol/kg folate-DNP1, 5) 30 nmol/kg folate-DNP2, 6) 200 nmol/kg folate-DNP2, 7) 30 nmol/kg folate-DNP3, 8) 200 nmol/kg folate-DNP3, 9) 30 nmol/kg folate-TNP, or 10) 200 nmol/kg folate-TNP. Paw volumes, arthritis scores, spleen enlargement, bone degradation, and the biodistribution of FR+macrophages were then quantitated as a function of time during therapy, as described below.
Paw volumes were measured 2×/week by multiplying length, height, and width of the non-injected hind paw (Paulos et al., 2006). […] Spleen enlargement was assessed 25 days after initial treatment by euthanizing the animal and measuring the weight of the resected organs. Bone degradation of the non-injected hind paw was evaluated by x-ray radiography in one representative rat from each hapten group treated at 200 nmol/kg folate-hapten conjugate. The biodistribution of FR+ macrophages in each treatment group was also quantified using the FR-targeted radioimaging agent, ^99mTc-EC20, which was prepared as described previously (Turk et al., 2002). Briefly, each rat was injected i.p. with 500 μCi of radioactivity at a dose of 67 nmol/kg of EC20. […]

T1 sequence (P14207 17-230): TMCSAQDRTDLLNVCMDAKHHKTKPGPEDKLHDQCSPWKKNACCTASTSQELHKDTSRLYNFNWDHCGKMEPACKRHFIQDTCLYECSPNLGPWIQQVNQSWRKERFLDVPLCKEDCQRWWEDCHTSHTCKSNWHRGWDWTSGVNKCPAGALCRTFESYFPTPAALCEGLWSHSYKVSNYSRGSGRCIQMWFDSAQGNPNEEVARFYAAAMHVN

## Nc1nc2ncc(CNc3ccc(C(=O)NC(CCC(=O)NCCNC(=S)Nc4ccc(C(=O)O)c(-c5c6ccc(=O)cc-6oc6cc(O)ccc56)c4)C(=O)O)cc3)nc2c(=O)[nH]1 (stereo not shown) [folate-FITC, reference compound]
[1]
  rank order of binding affinity of the folate-hapten conjugates: folate-DNP3>folate-DNP2>folate-DNP 1>folate-TNP>folate-FITC
[2]
  relative potencies in preventing the increase in arthritis score: TNP=FITC>DNP1>DNP2>DNP3
[3]
  daily dose giving optimal responses: 100 nmol/kg

## Nc1nc2ncc(CNc3ccc(C(=O)N[C@H](CCC(=O)N[C@H](CCCCNc4c([N+](=O)[O-])cc([N+](=O)[O-])cc4[N+](=O)[O-])C(=O)O)C(=O)O)cc3)nc2c(=O)[nH]1 [folate-TNP]
[1]
  rank order of binding affinity of the folate-hapten conjugates: folate-DNP3>folate-DNP2>folate-DNP 1>folate-TNP>folate-FITC
[4]
  paw swelling (volume changes in non-injected hind paws): more effective than any of the folate-DNP conjugates, but similar in potency to folate-FITC
[2]
  relative potencies in preventing the increase in arthritis score: TNP=FITC>DNP1>DNP2>DNP3
[5]
  uptake of 99mTc-EC20 in spleens and livers: folate-DNP1 and folate-DNP2 appeared to be superior
